From PMC12700550, “DLL4^+ neutrophils promote Notch1-mediated endothelial PANoptosis to exacerbate acute lung injury in sepsis” (The Journal of Clinical Investigation, 2025)
“And” between values parts separate entries of the source, which are not always exact repeats. Equal values may be shown once.

B1: eCIRP: extracellular cold-inducible RNA-binding protein; recombinant murine, produced in our laboratory (protein, UniProt P60824 1-172, looked up)
Cold-inducible RNA-binding …: MASDEGKLFVGGLSFDTNEQALEQVFSKYGQISEVVVVKDRETQRSRGFGFVTFENIDDAKDAMMAMNGKSVDGRQIRVDQAGKSSDNRSRGYRGGSAGGRGFFRGGRSRGRGFSRGGGDRGYGGGRFESRSGGYGGSRDYYASRSQGGSYGYRSSGGSYRDSYDSYATHNE

Experiments:
ZBP1 [1] = experiment: ZBP1 protein in PVECs cocultured with neutrophils, Western blot; type: cell-based, mouse; conditions: for ZBP1 protein level (Figure 4F): 10 μM peptide, 16 h, individual replicates
Method: Wild-type PVECs (5 × 10^5) were cocultured with sorted DLL4^+ neutrophils (5 × 10^5) or DLL4^– neutrophils (5 × 10^5) and then treated with different dosages of peptides or 10 μM DAPT (Thermo Fisher Scientific), 10 μM NDI (GenScript), or 10 μM NDI scramble (GenScript). Notch1-knockdown PVECs (5 × 10^5) were cocultured with sorted DLL4^+ neutrophils (5 × 10^5). After 16 hours, neutrophils were washed away by PBS, and PVECs were collected for further experiments. Cell viability was evaluated by propidium iodide staining using the FITC Annexin V Apoptosis Detection Kit I (catalog 556547, BD Pharmingen). Cell death was quantified as the percentage of propidium iodide–positive cells by flow cytometry.
PVECs and lung tissue were collected in previous steps. Whole-cell proteins were extracted, and the protein concentration was measured using an ABC protein assay kit (catalog 5000002, Bio-Rad). Proteins were separated using NuPAGE 4%–12% Bis-Tris gels (Invitrogen), transferred to PVDF membranes, and immunoblotted with the antibodies indicated in the figure legends according to the manufacturer’s recommendations. The ZBP1 antibody (catalog PA5-20455; 1:1,000) used in this study was obtained from Thermo Fisher Scientific, and the c-GSDMD (catalog 10137S; 1:250), GSDMD (catalog 39754S; 1:1000), c-caspase-3 (catalog 9661L; 1:250), caspase-3 (catalog 9662S; 1:1,000), p-MLKL (catalog 37333S; 1:250), MLKL (catalog 37705S; 1:1,000), N1ICD (c-Notch1) (catalog 4147S; 1:250), and Notch1 (catalog 3608S; 1:1,000) antibodies were obtained from Cell Signaling Technology. GAPDH (catalog 60004-1-Ig; 1:10,000) and β-actin (catalog A5441, Sigma-Aldrich; 1:5,000) were obtained from ProteinTech. After the blots were incubated with primary antibodies, the membranes were washed 3 times, and the blots were subsequently incubated with the corresponding fluorescent secondary antibody (LI-COR). Bands were detected using an Odyssey FC Dual-Mode Imaging system 2800 (LI-COR).

ZBP1 [2] = experiment: ZBP1 mRNA in lungs of CLP mice, RT-PCR; type: in vivo, mouse; conditions: 20 h; for lung ZBP1 mRNA (Figure 5A): 10 mg/kg NDI retro-orbital, vs sham, individual mice, 10 mg/kg
Method: (§1) Sepsis was induced in mice by cecal ligation and puncture (CLP) as described previously ([45], [46]). Mice were anesthetized with isoflurane to a surgical plane and placed in a supine position. CLP was performed through a midline laparotomy. The abdomen was shaved and disinfected. Through a 2 cm midline incision, the cecum was exposed and then ligated with a 4-0 silk suture 1 cm proximal from the distal cecal extremity. For 20-hour CLP experiments, the cecum was punctured twice with a 22-gauge needle. A small amount of cecal content was extruded through both holes, and the ligated cecum was returned to the peritoneal cavity. The wound was closed in layers. For 10-day sepsis survival studies, the cecum was punctured once with a 22-gauge needle. A small amount of cecal content was extruded. Mice were allocated to the vehicle and adoptive transfer of DLL4^+ neutrophils or DLL4^– neutrophils groups. Adoptive transfer mice received a retro-orbital injection of 1 × 10^6 cells per mouse DLL4^+ neutrophils or DLL4^– neutrophils in […] phosphate-buffered saline (PBS) immediately after abdominal closure in both the 20-hour experiments and the survival study. Vehicle groups received an equivalent volume of PBS, while treatment groups received NDI 10 mg/kg in […] PBS via retro-orbital injection after CLP. This dose was chosen primarily on the basis of our laboratory’s prior experience, we have consistently used this dose in mouse CLP models with reproducible efficacy and without observable toxicity ([39], [44]). Sham-operated animals underwent a laparotomy without CLP. After closure, the mice received a subcutaneous injection of 0.5 mL of normal saline to overcome surgery-induced dehydration. For 20-hour experiments, animals were not injected with antibiotics; however, for survival studies, animals were given 0.5 mg per kg body weight imipenem (lot 4D21K05, WG Critical Care LLC) subcutaneously in 0.5 mL saline once at the end of CLP. All mice were subcutaneously injected with a single dose of 0.1 mg/kg buprenorphine after CLP. […]

p-MLKL = experiment: p-MLKL/MLKL in lungs of CLP mice, Western blot; type: in vivo, mouse; conditions: 10 mg/kg NDI, 20 h; for lung p-MLKL/MLKL (Figure 5F): individual mice, 10 mg/kg
Method: as §1, with “dehydration.” for “dehydration. For 20-hour experiments, animals were not injected with antibiotics; however, for survival studies, animals were given 0.5 mg per kg body weight imipenem (lot 4D21K05, WG Critical Care LLC) subcutaneously in 0.5 mL saline once at the end of CLP. All mice were subcutaneously injected with a single dose of 0.1 mg/kg buprenorphine after CLP.”
PVECs and lung tissue were collected in previous steps. Whole-cell proteins were extracted, and the protein concentration was measured using an ABC protein assay kit (catalog 5000002, Bio-Rad). […] Bands were detected using an Odyssey FC Dual-Mode Imaging system 2800 (LI-COR).

[3] = system: DLL4 expression on human neutrophils; experiment: Frequency of DLL4^+ neutrophils (CD66^+DLL4^+), human peripheral blood neutrophils; type: cell-based; conditions: 12 h
From the text: Blood samples were obtained from the deidentified healthy human subjects. Written informed consent was obtained from all participants, and human subject protocols were approved by the Institutional Review Board of the North Shore University Hospital. Five milliliters of blood was collected by venipuncture and placed in EDTA blood collection tubes. We isolated the neutrophils from fresh blood samples by immunomagnetic cell separation using an EasySep Direct Human Neutrophil Isolation Kit (catalog 19666, Stem Cell Technologies). A total of 20 × 10^6 neutrophils were obtained from 5 mL of blood. Neutrophils (1 × 10^6 cells/mL) were stimulated with 1 μg/mL eCIRP for 12 hours. The cells were then stained with anti-CD66b (clone G10F5, catalog 984102, BioLegend) and DLL4 antibodies (clone MHD4-46, catalog 346506, BioLegend), and the frequencies (percentage) of DLL4^+ neutrophils were detected by flow cytometry.

Molecule	effect on ZBP1 protein (ZBP1 [1]; 10 μM NDI, DLL4^+ neutrophil coculture)	effect on ZBP1, c-GSDMD, c-caspase-3, and p-MLKL (ZBP1 [1]; 10 μM NDI, DLL4^– neutrophil coculture)	ZBP1 protein level (Figure 4F) (ZBP1 [1]; DLL4^+ neutrophil coculture)	ZBP1 protein level (Figure 4F) (ZBP1 [1]; DLL4^– neutrophil coculture)	lung ZBP1 mRNA (Figure 5A) (ZBP1 [2]; DLL4^+ neutrophils i.v. + CLP)	effect on lung ZBP1 mRNA (ZBP1 [2]; DLL4^+ neutrophils/sepsis, 10 mg/kg NDI)	lung ZBP1 mRNA (Figure 5A) (ZBP1 [2]; DLL4^– neutrophils + CLP)	lung p-MLKL/MLKL (Figure 5F) (p-MLKL; DLL4^+ neutrophils + CLP)	effect on lung p-MLKL (p-MLKL; DLL4^+ neutrophils/sepsis)	lung p-MLKL/MLKL (Figure 5F) (p-MLKL; DLL4^– neutrophils + CLP)	frequency of DLL4^+ neutrophils (Figure 1K) ([3]; human neutrophils 1 × 10^6/mL, eCIRP 1 μg/mL, individual replicates)	effect on frequency of DLL4^+ neutrophils ([3]; human peripheral blood neutrophils, 1 μg/mL)
ECAGSPCHNGGTCEDGI [NDI]	significantly attenuated by NDI treatment	less effect on the DLL4^– neutrophil coculture group	3.384 and 1.384 and 0.9406 and 0.8744 and 0.4031 and 0.6648 and 0.9901 and 0.7708 and 1.063 and 1.037 and 1.784 and 1.376 and 1.24 and 1.14	1.4609 and 1.716 and 1.338 and 0.9958 and 0.6394	2.489 fold change and 2.951 fold change and 0.6537 fold change and 1.296 fold change and 1.101 fold change and 2.543 fold change and 1.904 fold change and 2.345 fold change and 0.6068 fold change and 1.613 fold change and 2.244 fold change and 2.348 fold change and 0.6906 fold change	effectively decreased ZBP1 expression	3.779 fold change and 3.701 fold change and 3.374 fold change and 2.776 fold change and 2.9508 fold change and 2.383 fold change and 4.109 fold change and 2.422 fold change	1.846 and 1.579 and 1.945 and 1.685 and 1.856 and 1.651 and 0.9594	attenuated the expression/activation	1.556 and 0.2214 and 0.5541 and 0.7582 and 0.5214 and 0.9855		
B1											16% and 10.3% and 4.81% and 7.94% and 7.27% and 10.4% and 15.89% and 20.5% and 19.83%	significantly increased the frequency of DLL4^+ neutrophils
